In the NIST ThermoML archive (doi:10.1016/j.jct.2013.09.024):
± gives the expanded uncertainty stated by the source.

Assay: excess molar enthalpy (molar enthalpy of mixing); xn = mol fraction of the nth substance listed
Details: 101 kPa, Liquid, Flow calorimetry

CC1(C)C(=O)[C@]2(C)CC[C@H]1C2 [(-)-fenchone] + CCO
excess molar enthalpy [kJ/mol]
Details	283.15 K	298.15 K	313.15 K	328.15 K
x1 = 0.048	0.175 ± 0.013	0.199 ± 0.014	0.221 ± 0.016	0.245 ± 0.017
x1 = 0.097	0.337 ± 0.021	0.382 ± 0.024	0.425 ± 0.027	0.469 ± 0.029
x1 = 0.195	0.588 ± 0.036	0.666 ± 0.041	0.744 ± 0.045	0.821 ± 0.05
x1 = 0.286	0.768 ± 0.047	0.876 ± 0.053	0.977 ± 0.059	1.08 ± 0.065
x1 = 0.395	0.914 ± 0.055	1.04 ± 0.063	1.16 ± 0.07	1.28 ± 0.078
x1 = 0.488	0.963 ± 0.058	1.11 ± 0.067	1.24 ± 0.075	1.36 ± 0.083
x1 = 0.601	0.96 ± 0.058	1.1 ± 0.066	1.22 ± 0.074	1.33 ± 0.081
x1 = 0.701	0.878 ± 0.053	1 ± 0.061	1.1 ± 0.067	1.2 ± 0.073
x1 = 0.801	0.719 ± 0.044	0.807 ± 0.049	0.884 ± 0.054	0.95 ± 0.058
x1 = 0.894	0.437 ± 0.027	0.503 ± 0.031	0.55 ± 0.034	0.586 ± 0.037
x1 = 0.945	0.238 ± 0.016	0.272 ± 0.019	0.297 ± 0.021	0.318 ± 0.022
